The first assay deals with T1, IL-17A/A (Homo sapiens, UniProt Q16552).
T1 construct: purchased Genscript Z03228
T1 sequence (Q16552 24-155): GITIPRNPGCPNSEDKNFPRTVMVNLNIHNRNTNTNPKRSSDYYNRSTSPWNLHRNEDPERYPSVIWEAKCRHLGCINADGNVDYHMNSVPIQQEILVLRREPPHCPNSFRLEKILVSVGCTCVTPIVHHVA
Briefly: IL-17A/A HEK-Blue Cell Assay. In kind it is cell-based. Conditions: HEK-Blue IL-17A reporter cell line, SEAP readout at A630, 20 hours incubation with IL-17A/A; top concentration 10 uM, 1 uM or 0.3 uM.
For `CCC(=O)N[C@H](Cc1ccc(NC(=O)[C@@H](NC(=O)c2ccnn2CC)c2cccc3ccccc23)c(F)c1)C(=O)N1CCN(C)CC1` [Compound 698], the “IL-17A/A inhibition (pIC50)” value was “X2b (compounds were evaluated up to 1 uM and inhibited activity at 1 uM by less than 20%)”.
Still for that read-out and setting: under `CCC(=O)N[C@@H](C(=O)N1CCN(C)CC1)[C@@H](C)c1ccc(NC(=O)[C@@H](NC(=O)C(F)(F)C2CCOCC2)[C@H]2CC[C@H](C)CC2)c(F)c1` [Compound 660] stands “X3a (compounds were evaluated up to 0.3 uM and did not inhibit activity by >80%, however they showed some activity at 0.3 uM (less than 80% and more than 20%))”; under `CCC(=O)N[C@H](Cc1ccc(NC(=O)[C@@H](NC(=O)c2cnc(C(=O)NC)s2)C2CCCCC2)c(F)c1)C(=O)N1CCN(C)CC1` [Compound 699], “X2b (compounds were evaluated up to 1 uM and inhibited activity at 1 uM by less than 20%)”.
Still for that read-out and setting: under `CCn1nccc1C(=O)N[C@H](C(=O)Nc1ccc([C@H](C)[C@@H](NC(=O)c2cnsc2)C(=O)N2CCN(C)CC2)cc1F)[C@H]1CC[C@H](C)CC1` [Compound 487] stands “B (8>B≥7 as B)”.
Still for that read-out and setting: then `CCC(=O)N[C@H](Cc1ccc(NC(=O)[C@@H](NC(=O)c2ccnn2CC)[C@H]2CC[C@H](C(F)(F)F)CC2)c(F)c1)C(=O)N1CCN(C)CC1` [Compound 732], with “X2a (compounds were evaluated up to 1 uM and did not inhibit activity by >80%, however they showed some activity at 1 uM (less than 80% and more than 20%))”; and `CCn1nccc1C(=O)N[C@H](C(=O)Nc1ccc(C[C@@H](NC(=O)c2cn(C)cn2)C(=O)N2CCN(C)CC2)cc1F)C1CCCCC1` [Compound 702], with “X2b (compounds were evaluated up to 1 uM and inhibited activity at 1 uM by less than 20%)”; and `CCC(=O)N[C@@H](C(=O)N1CCN(C)CC1)[C@@H](C)c1ccc(NC(=O)C(NC(=O)c2nonc2CC)C(CC)c2ccc(F)cc2)c(F)c1` (single isomer, unassigned) [Compound 559], with “X2b (compounds were evaluated up to 1 uM and inhibited activity at 1 uM by less than 20%)”.
On to `CCC(=O)N[C@@H](C(=O)N1CCN(C)CC1)[C@@H](C)c1ccc(NC(=O)C(NC(=O)c2ccnn2CC)C(C)C2CCC(F)(F)CC2)c(F)c1` (single isomer, unassigned) [Compound 591], for which the “IL-17A/A inhibition (pIC50)” value is “X3b (compounds were evaluated up to 0.3 uM and inhibited activity at 0.3 uM by less than 20%)”.

The assay is the same for the next values; noted with them: HEK-Blue IL-17A reporter cell line, SEAP readout at A630, 20 hours incubation with IL-17A/A; top concentration 10 uM, 1 uM or 0.3 uM; read-out: IL-17A/A inhibition (pIC50) (converted).
Turning to `CCC(=O)N[C@@H](C(=O)N1CCN(C)CC1)[C@@H](C)c1ccc(NC(=O)[C@@H](NC(=O)C(F)(F)c2ccccc2C#N)C2CCCCC2)c(F)c1` [Compound 638], the IC50 is 100 to 10000 nM.
Turning to `CCC(=O)N[C@H](Cc1ccc(NC(=O)[C@@H](NC(=O)c2ccnn2CC)C2CCC(F)(F)CC2)c(F)c1)C(=O)N1CCN(C)CC1` [Compound 689], the IC50 is 100 to 10000 nM.
As to `CCC(=O)N[C@@H](C(=O)N1CCN(C)CC1(C)C)[C@@H](C)c1ccc(NC(=O)[C@@H](NC(=O)c2ccnn2CC)[C@H]2CC[C@H](C)CC2)c(F)c1` [Compound 431], the IC50 was less than 10 nM.
On the same count and under the same terms, then `CCC(=O)N[C@H](Cc1ccc(NC(=O)[C@@H](NC(=O)c2ccnn2C2CC2)C2CCCCC2)c(F)c1)C(=O)N1CCN(C)CC1` [Compound 676], with 100 to 10000 nM.
Regarding `CCC(=O)N[C@@H](C(=O)N1CCN(C)CC1)[C@@H](C)c1ccc(NC(=O)[C@@H](NC(=O)c2ccnn2C(C)C)C2CCCCCC2)cc1` [Compound 232], the IC50 is 10 to 100 nM.
Regarding `CCC(=O)N[C@@H](C(=O)N1CCN(C)CC1)[C@@H](C)c1ccc(NC(=O)[C@@H](NC(=O)c2ccnn2CC)[C@H]2CC[C@H](C(F)(F)F)CC2)c(F)c1` [Compound 649], the IC50 was 100 to 10000 nM.
Same read-out and setting: under `CCc1nonc1C(=O)N[C@H](C(=O)Nc1ccc([C@H](C)C(NC(=O)C(F)C2CC2)C(=O)N2CCN(C)[C@H](C)C2)cc1F)[C@H]1CC[C@H](C)CC1` (single isomer, unassigned) [Compound 600] stands less than 10 nM.
On the same count and under the same terms, under `CCc1nocc1C(=O)N[C@H](C(=O)Nc1ccc([C@H](C)[C@@H](NC(=O)c2cnns2)C(=O)N2CCN(C)CC2)cc1F)[C@H]1CC[C@H](C)CC1` [Compound 414] stands less than 10 nM; under `CCn1nccc1C(=O)N[C@H](C(=O)Nc1ccc([C@H](C)C(NC(=O)C(F)C2CC2)C(=O)N2CCN(C)[C@H](C)C2)cc1F)[C@H]1CC[C@H](C)CC1` (single isomer, unassigned) [Compound 602], less than 10 nM; under `CCn1nccc1C(=O)N[C@H](C(=O)Nc1ccc([C@H](C)[C@@H](NC(=O)c2cnc(C)n2C)C(=O)N2CCN(C)CC2)cc1F)C1CCCCC1` [Compound 678], 100 to 10000 nM.
Same read-out and setting: under `C[C@@H](c1ccc(NC(=O)[C@@H](NC(=O)C(F)(F)c2cccc(C#N)c2)C2CCCCC2)c(F)c1)[C@@H](NC(=O)c1cnns1)C(=O)N1CCN(C)CC1` [Compound 311] stands less than 10 nM; under `CCn1nccc1C(=O)N[C@H](C(=O)Nc1ccc([C@H](C)[C@@H](NC(=O)c2csnn2)C(=O)N2CCN(C)CC2)cc1F)C1CCCCC1` [Compound 644], 100 to 10000 nM.
In the case of `CCC(=O)N[C@H](Cc1ccc(NC(=O)[C@@H](NC(=O)c2ccnn2CC)C2CCCCC2)c(F)c1)C(=O)N1CCN(CCF)CC1` [Compound 679], the IC50 was 100 to 10000 nM.
For the molecule `CCn1nccc1C(=O)N[C@H](C(=O)Nc1ccc([C@H](C)[C@@H](NC(=O)c2csc(N)n2)C(=O)N2CCN(C)CC2)cc1F)C1CCCCC1` [Compound 695], the IC50 was 100 to 10000 nM.
Turning to `CCn1nccc1C(=O)N[C@H](C(=O)Nc1ccc([C@H](C)[C@@H](NC(=O)c2cc(C)n[nH]2)C(=O)N2CCN(C)CC2)cc1F)C1CCCCC1` [Compound 666], the IC50 was 100 to 10000 nM.
Turning to `CCc1nonc1C(=O)N[C@H](C(=O)Nc1ccc([C@H](C)[C@@H](NC(=O)c2cccnc2OC)C(=O)N2CCN(C)CC2)cc1F)[C@H]1CC[C@H](C)CC1` [Compound 576], the IC50 is 10 to 100 nM.
Same read-out and setting: under `CCC(=O)N[C@@H](C(=O)N1CCNC2(CC2)C1)[C@@H](C)c1ccc(NC(=O)[C@@H](NC(=O)c2nonc2CC)[C@H]2CC[C@H](C)CC2)c(F)c1` [Compound 444] stands 10 to 100 nM.
With `CCc1nonc1C(=O)N[C@H](C(=O)Nc1ccc([C@H](C)[C@@H](NC(=O)c2c(OC)cnn2CC)C(=O)N2CCN(C)CC2)cc1F)[C@H]1CC[C@H](C)CC1` [Compound 577], the IC50 was 10 to 100 nM.
On the same count and under the same terms, then `CCn1nccc1C(=O)N[C@H](C(=O)Nc1ccc([C@H](C)[C@@H](NC(=O)C2(F)CC2)C(=O)N2CCN(C)CC2)cc1F)C1CCCCCC1` [Compound 326], with 10 to 100 nM.
Still for that read-out and setting: then `CCC(=O)N[C@@H](C(=O)N1CCN(C)[C@H](C)C1)[C@@H](C)c1ccc(NC(=O)[C@@H](NC(=O)c2ccnn2CC)[C@H]2CC[C@H](C)CC2)c(F)c1` [Compound 436], with less than 10 nM; and `CCc1nonc1C(=O)N[C@H](C(=O)Nc1ccc([C@H](C)[C@@H](NC(=O)C2(F)CCC2)C(=O)N2CCN(C)[C@H](C)C2)cc1F)[C@H]1CC[C@H](C)CC1` [Compound 505], with 10 to 100 nM.
The same measure, in the same setting: under `CCC(=O)N[C@@H](C(=O)N1CCN(C)CC1)[C@@H](C)c1ccc(NC(=O)[C@@H](NC(=O)c2conc2C2CC2)[C@H]2CC[C@H](C)CC2)c(F)c1` [Compound 279] stands 10 to 100 nM; under `CCC(=O)N[C@@H](C(=O)N1C[C@@H](C)N(C)[C@@H](C)C1)[C@@H](C)c1ccc(NC(=O)[C@@H](NC(=O)c2nonc2CC)[C@H]2CC[C@H](C)CC2)c(F)c1` [Compound 452], less than 10 nM.
With `CCC(=O)N[C@@H](C(=O)N1CCN(C)CC1)[C@@H](C)c1ccc(NC(=O)[C@@H](NC(=O)c2nonc2OC)[C@H]2CC[C@H](C)CC2)c(F)c1` [Compound 551], the IC50 is 10 to 100 nM.
As for `CCC(=O)N[C@@H](C(=O)N1CCN(Cc2ccccc2)CC1)[C@@H](C)c1ccc(NC(=O)[C@@H](NC(=O)C(F)(F)c2cncc(OC)c2)[C@H]2CC[C@H](C)CC2)c(F)c1` [Compound 532], the IC50 is 10 to 100 nM.
Still for that read-out and setting: then `CCC(=O)N[C@H](Cc1ccc(NC(=O)[C@@H](NC(=O)c2ccnn2CC)C2CCCCC2)c(F)c1)C(=O)N1CCN(C2COC2)CC1` [Compound 770], with 100 to 10000 nM.
On the same count and under the same terms, then `CCC(=O)N[C@@H](C(=O)N1CCN(C)CC1)[C@@H](C)c1ccc(NC(=O)[C@@H](NC(=O)c2ccnn2CC)[C@H]2CC[C@H](C)CC2)c(F)c1` [Compound 234], with 10 to 100 nM; and `CCC(=O)N[C@@H](C(=O)N1CCN(C)CC1)[C@@H](C)c1ccc(NC(=O)[C@@H](NC(=O)c2conc2C(C)C)[C@H]2CC[C@H](C)CC2)c(F)c1` [Compound 284], with less than 10 nM; and `CCn1nccc1C(=O)N[C@H](C(=O)Nc1ccc([C@H](C)[C@@H](NC(=O)c2cc(C#N)cs2)C(=O)N2CCN(C)CC2)cc1F)C1CCCCC1` [Compound 624], with 100 to 10000 nM.
Consider `CCC(=O)N[C@@H](C(=O)N1CCN(C)CC1)[C@@H](C)c1ccc(NC(=O)[C@@H](NC(=O)c2ccnn2CC)[C@H](OC)c2ccc(F)cc2)c(F)c1` [Compound 610], for which the IC50 is 100 to 10000 nM.
For `CCc1nonc1C(=O)N[C@H](C(=O)Nc1ccc([C@H](C)[C@@H](NC(=O)C(C)(C)F)C(=O)N2CCN(C)CC2)cc1F)[C@H]1CC[C@H](C)CC1` [Compound 495], the IC50 is 10 to 100 nM.
As for `CCc1nonc1C(=O)N[C@H](C(=O)Nc1ccc([C@H](C)[C@@H](NC(=O)N(CC)C2CC2)C(=O)N2CCN(C)CC2)cc1F)[C@H]1CC[C@H](C)CC1` [Compound 574], the IC50 was less than 10 nM.
On the same count and under the same terms, under `CC(C)n1nccc1C(=O)N[C@H](C(=O)Nc1ccc([C@H](C)[C@@H](NC(=O)c2cnns2)C(=O)N2CCN(C)CC2)cc1F)[C@H]1CC[C@H](C)CC1` [Compound 333] stands less than 10 nM.
On to `CCC(=O)N[C@@H](C(=O)N1CCN(C)CC1)[C@@H](C)c1ccc(NC(=O)[C@@H](NC(=O)C(F)(F)c2ccc(OC)nc2)[C@H]2CC[C@H](C)CC2)c(F)c1` [Compound 295], for which the IC50 is less than 10 nM.

For the origin of these results see US12421212B2, “Substituted benzenecarboxamides as IL-17A modulators” (DiCE Alpha, Inc., priority 2019, dated 2025).
